Test results published in US8349827B2, “Substituted dipyrido-pyrimido-diazepine and benzo-pyrido-pyrimido compounds” (ArQule, Inc., priority 2009, dated 2013).
Where a name gives a salt, the structure may show the parent alone.

What was measured:
ABL = ABL (Homo sapiens, UniProt P00519); experiment: ABL Kinase Activity Assay (Elisa), ABL; type: biochemical; settings: ATP 100 μM, read-out: Abl Enzymetic assay (Elisa) % inhibition
How it was run: (§1)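 Recombinant ABL or ABL T315I (0.089 nM final) preincubated 20 min with compound, then reacted 1 h at room temperature with 100 μM ATP and 128 nM biotinylated AblTide in Tris pH 7.0/MgCl2 buffer. Phosphopeptide captured on streptavidin and detected by anti-phosphotyrosine ELISA with alkaline phosphatase secondary and Attophos fluorescence.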

KATO III = experiment: MTS assay, KATO III cells; type: cell-based; settings: Homo sapiens, 72 hours
How it was run: (§2)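 First, seed 3000 cells per well in low-serum (1% FBS) DMEM and culture 18 h. Next, add compounds prepared at 300× in DMSO and diluted 1:40 in DMEM; incubate 72 h. Finally, add MTS/PMS for 4 h and measure absorbance at 492 nm.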

ABL T315I = ABL T315I (Homo sapiens, UniProt P00519, T315I); experiment: ABL Kinase Activity Assay (Elisa), ABL T315I; type: biochemical; settings: ATP 100 μM, read-out: Abl(T315I) Enzymetic assay (Elisa) % inhibition
How it was run: as §1

DLD-1 = experiment: MTS assay, DLD-1 cells; type: cell-based; settings: Homo sapiens, 72 hours
How it was run: as §2

NCI-H1299 = experiment: MTS assay, NCI-H1299 cells; type: cell-based; settings: Homo sapiens, 72 hours
How it was run: as §2

MDA-MB-231 = experiment: MTS assay, MDA-MB-231 cells; type: cell-based; settings: Homo sapiens, 72 hours
How it was run: as §2

PACA-2 = experiment: MTS assay, PACA-2 cells; type: cell-based; settings: 72 hours
How it was run: as §2

PC-3 = experiment: MTS assay, PC-3 cells; type: cell-based; settings: Homo sapiens, 72 hours
How it was run: as §2

Structure (SMILES)	inhibition at 10 µM (ABL)	inhibition at 10 µM (ABL T315I)	melting point	inhibition at 10 µM (KATO III)	inhibition at 10 µM (DLD-1)	inhibition at 10 µM (NCI-H1299)	inhibition at 10 µM (MDA-MB-231)	inhibition at 10 µM (PACA-2)	inhibition at 10 µM (PC-3)
Fc1ccc(CNc2ncc3c(n2)-c2cccnc2Nc2cnccc2-3)c(F)c1 [Example 2, N-(2,4-difluorobenzyl)-9H-dipyrido[2,3-b:4′,3′-f]pyrimido[4,5-d]azepin-2-amine]	80 to 100%	80 to 100%	264 to 266 °C	50 to 79%	< 50%	50 to 79%	< 50%	< 50%	–
c1ccc2c(c1)Nc1ncccc1-c1nc(NCc3ccnc4[nH]ccc34)ncc1-2 [Example 66, N-(1H-pyrrolo[2,3-b]pyridin-4-ylmethyl)-9H-pyrido[2,3-b]pyrimido[4,5-d][1]benzazepin-2-amine]	–	–	285 to 288 °C	80 to 100%	50 to 79%	50 to 79%	50 to 79%	80 to 100%	50 to 79%
c1cnc2c(c1)-c1nc(NCc3ccnc4[nH]ccc34)ncc1-c1ccncc1N2 [Example 55, N-(1H-pyrrolo[2,3-b]pyridin-4-ylmethyl)-9H-dipyrido[2,3-b:4′,3′-f]pyrimido[4,5-d]azepin-2-amine]	–	–	208 to 211 °C	80 to 100%	80 to 100%	50 to 79%	< 50%	80 to 100%	80 to 100%
CN(C)CCCNc1ncc2c(n1)-c1cccnc1Nc1cnccc1-2 (as salt: TFA) [Example 50, N′-9H-dipyrido[2,3-b:4′,3′-f]pyrimido[4,5-d]azepin-2-yl-N,N-dimethylpropane-1,3-diamine]	–	–	> 253 °C	–	–	–	–	–	–
c1cnc2c(c1)-c1nc(NC3CCNCC3)ncc1-c1ccncc1N2 (as salt: TFA) [Example 59, N-piperidin-4-yl-9H-dipyrido[2,3-b:4′,3′-f]pyrimido[4,5-d]azepin-2-amine]	–	–	189 to 191 °C	–	–	–	–	–	–
c1ccc(CNc2ncc3c(n2)-c2cccnc2Nc2cnccc2-3)nc1 (as salt: TFA) [Example 49, N-(pyridin-2-ylmethyl)-9H-dipyrido[2,3-b:4′,3′-f]pyrimido[4,5-d]azepin-2-amine]	–	–	253 to 255 °C	–	–	–	–	–	–
c1cnc2c(c1)-c1nc(NCC3CCNCC3)ncc1-c1ccncc1N2 (as salt: TFA) [Example 60, N-(piperidin-4-ylmethyl)-9H-dipyrido[2,3-b:4′,3′-f]pyrimido[4,5-d]azepin-2-amine]	–	–	151 to 153 °C	–	–	–	–	–	–
Cc1cccc2c(CCNc3ncc4c(n3)-c3cccnc3Nc3cnccc3-4)c[nH]c12 [Example 52, N-[2-(7-methyl-1H-indol-3-yl)ethyl]-9H-dipyrido[2,3-b:4′,3′-f]pyrimido[4,5-d]azepin-2-amine]	80 to 100%	80 to 100%	153 to 155 °C	80 to 100%	50 to 79%	50 to 79%	< 50%	< 50%	< 50%
CN(C)CCCCCNc1ncc2c(n1)-c1cccnc1Nc1cnccc1-2 (as salt: TFA) [Example 48, N′-9H-dipyrido[2,3-b:4′,3′-f]pyrimido[4,5-d]azepin-2-yl-N,N-dimethylpentane-1,5-diamine]	–	–	133 to 136 °C	–	–	–	–	–	–
COc1cccc(CCNc2ncc3c(n2)-c2cccnc2Nc2cnccc2-3)c1 [Example 24, N-[2-(3-methoxyphenyl)ethyl]-9H-dipyrido[2,3-b:4′,3′-f]pyrimido[4,5-d]azepin-2-amine]	80 to 100%	80 to 100%	–	50 to 79%	< 50%	< 50%	< 50%	< 50%	< 50%
Clc1cccc(CNc2ncc3c(n2)-c2cccnc2Nc2cnccc2-3)c1 [Example 1, N-(3-chlorobenzyl)-9H-dipyrido[2,3-b:4′,3′-f]pyrimido[4,5-d]azepin-2-amine]	80 to 100%	80 to 100%	195 to 196 °C	80 to 100%	50 to 79%	50 to 79%	< 50%	< 50%	–
COc1ccccc1CNc1ncc2c(n1)-c1cccnc1Nc1cnccc1-2 [Example 22, N-(2-methoxybenzyl)-9H-dipyrido[2,3-b:4′,3′-f]pyrimido[4,5-d]azepin-2-amine]	< 50%	< 50%	–	< 50%	50 to 79%	50 to 79%	80 to 100%	< 50%	50 to 79%
CN(C)CCCCNc1ncc2c(n1)-c1cccnc1Nc1cnccc1-2 [Example 51, N′-9H-dipyrido[2,3-b:4′,3′-f]pyrimido[4,5-d]azepin-2-yl-N,N-dimethylbutane-1,4-diamine]	50 to 79%	< 50%	–	80 to 100%	< 50%	< 50%	80 to 100%	< 50%	80 to 100%
Cc1cccc(CNc2ncc3c(n2)-c2cccnc2Nc2cnccc2-3)c1 [Example 40, N-(3-methylbenzyl)-9H-dipyrido[2,3-b:4′,3′-f]pyrimido[4,5-d]azepin-2-amine]	80 to 100%	80 to 100%	–	50 to 79%	50 to 79%	50 to 79%	50 to 79%	80 to 100%	80 to 100%
Cc1ccccc1CCNc1ncc2c(n1)-c1cccnc1Nc1cnccc1-2 [Example 15, N-[2-(2-methylphenyl)ethyl]-9H-dipyrido[2,3-b:4′,3′-f]pyrimido[4,5-d]azepin-2-amine]	80 to 100%	80 to 100%	–	50 to 79%	< 50%	< 50%	< 50%	< 50%	< 50%

Second part, led by results:

inhibition at 10 µM (ABL)	inhibition at 10 µM (ABL T315I)	melting point	Structure (SMILES)	inhibition at 10 µM (KATO III)	inhibition at 10 µM (DLD-1)	inhibition at 10 µM (NCI-H1299)	inhibition at 10 µM (MDA-MB-231)	inhibition at 10 µM (PACA-2)	inhibition at 10 µM (PC-3)
–	–	> 300 °C	c1ccc(-c2ncc3c(n2)-c2cccnc2Nc2cnccc2-3)cc1 [Example 54, 2-phenyl-9H-dipyrido[2,3-b:4′,3′-f]pyrimido[4,5-d]azepine]	< 50%	< 50%	< 50%	< 50%	–	< 50%
–	–	> 300 °C	Nc1ccc(-c2ncc3c(n2)-c2cccnc2Nc2cnccc2-3)cc1 [Example 53, 4-(9H-dipyrido[2,3-b:4′,3′-f]pyrimido[4,5-d]azepin-2-yl)aniline]	< 50%	< 50%	< 50%	< 50%	< 50%	< 50%
–	–	188 to 190 °C	Cc1cccc2c(CCNc3ncc4c(n3)-c3cccnc3Nc3ccccc3-4)c[nH]c12 [Example 65, N-[2-(7-methyl-1H-indol-3-yl)ethyl]-9H-pyrido[2,3-b]pyrimido[4,5-d][1]benzazepin-2-amine]	80 to 100%	80 to 100%	80 to 100%	50 to 79%	80 to 100%	80 to 100%
–	–	154 to 156 °C	CN(C)CCCCNc1ncc2c(n1)-c1cccnc1Nc1cnccc1-2 (as salt: TFA) [Example 51, N′-9H-dipyrido[2,3-b:4′,3′-f]pyrimido[4,5-d]azepin-2-yl-N,N-dimethylbutane-1,4-diamine]	–	–	–	–	–	–
50 to 79%	< 50%	–	CCCN1CCC(Nc2ncc3c(n2)-c2cccnc2Nc2cnccc2-3)CC1 [Example 23, N-(1-propylpiperidin-4-yl)-9H-dipyrido[2,3-b:4′,3′-f]pyrimido[4,5-d]azepin-2-amine]	80 to 100%	80 to 100%	80 to 100%	80 to 100%	80 to 100%	80 to 100%
–	–	208 to 211 °C	OCCc1cccc(Nc2ncc3c(n2)-c2cccnc2Nc2cnccc2-3)c1 [Example 56, 2-[3-(9H-dipyrido[2,3-b:4′,3′-f]pyrimido[4,5-d]azepin-2-ylamino)phenyl]ethanol]	80 to 100%	50 to 79%	50 to 79%	< 50%	80 to 100%	< 50%
